Measurements taken from patent US6803362B2, “Heterocyclic compounds” (Ortho-McNeil Pharmaceutical inc., priority 2001, dated 2004).

Test system: Croton Oil Induced Topical Inflammation in Mice
Test: Croton oil induced topical inflammation in mice (ear swelling)
Assay type: in vivo, mouse
Conditions: 10 mg/kg s.c.; vs vehicle group; 6 h
Protocol: Male or female ICR derived mice weighing 22±1 g were used. Space allocation for 5 animals was 45×23×15 cm. Mice were house in APEC R cages. All animals were maintained in a controlled temperature (22° C.-24° C.) and humidity (60%-80%) environment with 12 h light/dark cycles. Free access to standard lab chow for Mice (LabDiet Rodent Diet, PMI Nutrition International, USA) and tap water was granted.
Acetone (Wako, Japan), Croton oil (Sigma, USA), Indomethacin (Sigma, USA) and Pyrogen free saline (Astar, Taiwan).
Groups of 5 ICR derived male mice weighing 22±1 g were used. […] Ear swelling was measured by Dyer model micrometer gauge 6 h after croton oil as an index of inflammation.

`CN1CCN(C(=O)c2cc3cc(Cl)ccc3[nH]2)CC1` [Compound 1, (5-Chloro-1H-indol-2-yl)-(4-methyl-piperazin-1-yl)-methanone] was tested, and the “% inhib (ear swelling)” value was “(−28%)”.
